Measured values published in ChEMBL document CHEMBL1201862, “PubChem BioAssay data set” (2004).
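Protocol summary: plate cells (96-well), add compound at 5 concentrations, incubate 48 h, interpolate endpoints linearly. Here, GI50 denotes the concentration required for 50% inhibition of growth.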 Calls of active or inactive are those of the source. Cut-off read from the data, not from the text of the source: active = GI50 up to about 1.1 µM and inactive = higher.

Key:
Test in all cases: NCI anticancer screen, dose series, 48 h
COLO 205 = test system: COLO 205
SNB-19 = test system: SNB-19
IGROV-1 = test system: IGROV-1
U-251 = test system: U-251
T47D = test system: T47D
BT-549 = test system: BT-549
PC-3 = test system: PC-3
HCC 2998 = test system: HCC 2998
Malme-3M = test system: Malme-3M
HL-60 = test system: HL-60
MDA-MB-435 = test system: MDA-MB-435
A549 = test system: A549
SF-295 = test system: SF-295
M14 = test system: M14
SK-MEL-5 = test system: SK-MEL-5
UACC-257 = test system: UACC-257
ACHN = test system: ACHN
Hs-578T = test system: Hs-578T
OVCAR-4 = test system: OVCAR-4
RPMI-8226 = test system: RPMI-8226

Measured: GI50

C=CCC1(OC(C)=O)C2OC(=O)C1(O)OCC2O (stereo not given)
inactive: COLO 205 > 100 µM | SNB-19 > 100 µM | IGROV-1 > 100 µM | U-251 > 100 µM | T47D > 100 µM | BT-549 > 100 µM | PC-3 > 100 µM | HCC 2998 > 100 µM | Malme-3M > 100 µM | HL-60 > 100 µM | MDA-MB-435 > 100 µM | A549 > 100 µM | SF-295 > 100 µM | M14 > 100 µM | SK-MEL-5 > 100 µM | UACC-257 > 100 µM | ACHN > 100 µM | Hs-578T > 100 µM | OVCAR-4 > 100 µM | RPMI-8226 > 100 µM

O=c1c(-c2nc3ccccc3c3ccccc3c2=O)nc2ccccc2c2ccccc12
inactive: COLO 205 38.4 µM | SNB-19 30.3 µM | IGROV-1 44.9 µM | U-251 22.2 µM | T47D 32.6 µM | BT-549 47.1 µM | PC-3 27.7 µM | HCC 2998 21.9 µM | Malme-3M 76.6 µM | HL-60 20 µM | MDA-MB-435 29.2 µM | A549 48 µM | SF-295 29.7 µM | M14 35.2 µM | SK-MEL-5 24.8 µM | UACC-257 33.8 µM | ACHN 36.1 µM | Hs-578T 51.4 µM | OVCAR-4 37.5 µM | RPMI-8226 26.2 µM

CCOC(=O)/C=C(\C(=O)OCC)n1ccc(=O)[nH]c1=O
inactive: COLO 205 2.67 µM | SNB-19 52.2 µM | IGROV-1 15.4 µM | U-251 17.4 µM | T47D 6.59 µM | BT-549 16.7 µM | PC-3 16.9 µM | HCC 2998 22.4 µM | Malme-3M 10.2 µM | HL-60 2.44 µM | MDA-MB-435 17.4 µM | A549 29.8 µM | SF-295 > 60.8 µM | M14 16.5 µM | SK-MEL-5 24.7 µM | UACC-257 4.72 µM | ACHN 9.35 µM | Hs-578T 29.4 µM | OVCAR-4 19.1 µM | RPMI-8226 13.1 µM

COc1ccc(N2C(=O)C3c4[nH]c5ccc([N+](=O)[O-])cc5c4C4CCC(C(C)(C)C)CC4C3C2=O)cc1 (stereo not given)
inactive: COLO 205 4.82 µM | SNB-19 35.7 µM | IGROV-1 7.66 µM | U-251 19.3 µM | T47D 27.5 µM | BT-549 14.5 µM | PC-3 5.21 µM | HCC 2998 10.9 µM | Malme-3M 28.4 µM | HL-60 8.02 µM | MDA-MB-435 18.7 µM | A549 6.28 µM | SF-295 13.7 µM | M14 14.8 µM | SK-MEL-5 12.4 µM | UACC-257 35.2 µM | ACHN 9.75 µM | Hs-578T 25.4 µM | OVCAR-4 14.8 µM | RPMI-8226 13.3 µM

COc1ccc(/C=C2\N=C(N3CCCC(CO)C3)NC2=O)cc1 (stereo not given)
inactive: COLO 205 > 100 µM | SNB-19 > 100 µM | IGROV-1 > 100 µM | U-251 > 100 µM | T47D > 100 µM | BT-549 > 100 µM | PC-3 > 100 µM | HCC 2998 > 100 µM | Malme-3M > 100 µM | HL-60 > 100 µM | MDA-MB-435 > 100 µM | A549 > 100 µM | SF-295 > 100 µM | M14 > 100 µM | SK-MEL-5 > 100 µM | UACC-257 > 100 µM | ACHN > 100 µM | Hs-578T > 100 µM | OVCAR-4 > 100 µM | RPMI-8226 > 100 µM
